Reference: patent publication US10858351B2, “Substituted tetrahydropyridine derivatives as IDO-1 inhibitors and uses thereof” (Alberta Research Chemicals Inc., priority 2017, dated 2020)

Columns and labels:
Type in all cases: cell-based
Human IDO-1 [1] = molecular target: T1, Human IDO-1 (Homo sapiens, UniProt P14902); assay: IDO Kynurenine Assay with Human IDO1/HEK293 cells (Basal L-Kynurenine readout); conditions: HEK Human IDO-1; for inhibition at 10 µM: HEK293, Primary SP, 10 μM compound, read-out: Basal_L-Kynurenine (IDO1 % inhib @ 10 μM); for IC50: Primary CRC, read-out: Basal_L-Kynurenine IDO1 Rel IC50
Method: (§1) Compounds described in the Examples above were tested for inhibition of IDO activity with IDO Kynurenine Assay with Human ID01/HEK293 Cells.
(§2) Human ID01/HEK293 cells were seeded at 10,000 cells per 50 μL per well with RP Ml/phenol red free media containing 10% FBS in a 384-well black wall clear bottom tissue culture plate (Matrix Technologies LLC). 125 nL of certain concentration of compound was then added to each well using ECHO liquid handling systems. The cells were incubated for 20 hours in 37° C. incubator with 5% CO2.
The compound treatments were stopped by adding trichloroacetic acid (Sigma-Aldrich) to a final concentration at 0.2%. The cell plate was further incubated at 50° C. for 30 minute. The equal volume supernatant (20 μL) and 0.2% (w/v) Ehrlich reagent (4-dimethylaminobenzaldehyde, Sigma-Aldrich) in glacial acetic acid were mixed in a new clear bottom 384-well plate. This plate was then incubated at room temperature for 30 minute. The absorbance at 490 nm was measured on Envision plate reader.

Human IDO-1 [2] = molecular target: T1, Human IDO-1; assay: HEK Human IDO-1 cells, Basal N-formyl-kynurenine readout; conditions: Primary CRC, read-out: Basal_N-formyl-kyn IDO1 Rel IC50
Method: as §1, §2

Human ID01/HEK293 cells = assay: HEK Human IDO-1 cells, Basal Viability; conditions: Primary CRC, HEK Human IDO-1 cell viability, read-out: Basal_Viability Rel IC50
Method: as §2

T1 sequence (P14902 whole entry): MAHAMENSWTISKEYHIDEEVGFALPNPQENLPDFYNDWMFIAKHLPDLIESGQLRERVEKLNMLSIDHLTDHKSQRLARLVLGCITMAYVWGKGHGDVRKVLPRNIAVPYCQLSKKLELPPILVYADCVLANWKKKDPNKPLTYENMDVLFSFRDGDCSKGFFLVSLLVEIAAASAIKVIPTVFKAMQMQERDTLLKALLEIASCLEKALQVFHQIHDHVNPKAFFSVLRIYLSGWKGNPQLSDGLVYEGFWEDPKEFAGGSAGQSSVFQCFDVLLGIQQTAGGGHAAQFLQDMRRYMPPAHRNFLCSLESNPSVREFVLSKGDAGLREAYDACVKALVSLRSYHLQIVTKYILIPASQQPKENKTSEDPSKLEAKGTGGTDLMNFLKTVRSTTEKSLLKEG

Row | Structure (SMILES) | inhibition at 10 µM (Human IDO-1 [1]) [%] | IC50 (Human IDO-1 [1]) [µM] | IC50 (Human IDO-1 [2]) [µM] | IC50 (Human ID01/HEK293 cells) [µM]
1 | CCNC(=O)Nc1cccc(CN2CC=C(c3cccc(N4CCN(C)CC4)n3)CC2)c1 [Example 7, 1-Ethyl-3-{3-[6-(4-methyl-piperazin-1-yl)-3′,6′-dihydro-2′H-[2,4′]bipyridinyl-1′-ylmethyl]-phenyl}-urea] | < 90 | > 2 | > 2 | > 50
2 | CN1CCN(c2cccc(C3=CCN(Cc4cccc(NC(=O)NC5CCCCC5)c4)CC3)n2)CC1 [Example 8, 1-Cyclohexyl-3-{3-[6-(4-methyl-piperazin-1-yl)-3′,6′-dihydro-2′H-[2,4′]bipyridinyl-1′-ylmethyl]-phenyl}-urea] | < 90 | > 2 | > 2 | > 50
3 | CCNC(=O)Nc1cccc(CN2CC=C(c3cccc(N4CCCCC4)n3)CC2)c1 [Example 4, 1-Ethyl-3-[3-(6-piperidine-1-yl-3′,6′-dihydro-2′H-[2,4′]bipyridinyl-1′-ylmethyl)-phenyl]-urea] | > 90 | < 2 | < 2 | > 50
4 | CCNC(=O)Nc1cccc(CN2CC=C(c3cccc(N4CCOCC4)n3)CC2)c1 [Example 1, 1-Ethyl-3-[3-(6-morpholin-4-yl-3′,6′-dihydro-2′H-[2,4′]bipyridinyl-1′-ylmethyl)phenyl]urea] | > 90 | < 2 | < 2 | > 50
5 | CN1CCN(c2cccc(C3=CCN(Cc4cccc(NC(=O)NC5CC5)c4)CC3)n2)CC1 [Example 9, 1-Cyclopropyl-3-{3-[6-(4-methyl-piperazin-1-yl)-3′,6′-dihydro-2′H-[2,4′]bipyridinyl-1′-ylmethyl]-phenyl}-urea] | < 90 | > 2 | > 2 | > 50
6 | O=C(Nc1cccc(CN2CC=C(c3cccc(N4CCCCC4)n3)CC2)c1)NC1CCCCC1 [Example 5, 1-Cyclohexyl-3-[3-(6-piperidine-1-yl-3′,6′-dihydro-2′H-[2,4′]bipyridinyl-1′-ylmethyl)-phenyl]-urea] | > 90 | < 2 | < 2 | > 50
7 | O=C(Nc1cccc(CN2CC=C(c3cccc(N4CCCCC4)n3)CC2)c1)NC1CC1 [Example 6, 1-Cyclopropyl-3-[3-(6-piperidin-1-yl-3′,6′-dihydro-2′H-[2,4′]bipyridinyl-1′-ylmethyl)-phenyl]-urea] | > 90 | < 2 | < 2 | > 50
8 | O=C(Nc1cccc(CN2CC=C(c3cccc(N4CCOCC4)n3)CC2)c1)NC1CCCCC1 [Example 2, 1-Cyclohexyl-3-[3-(6-morpholin-4-yl-3′,6′-dihydro-2′H-[2,4′]bipyridinyl-1′-ylmethyl)-phenyl]-urea] | > 90 | < 2 | < 2 | > 50
